# Experimental data: patent publication US5068247A, “2-aminopentanoic acid compounds and their use as immunosuppressants” (priority 1989, dated 1991)
# Like-named read-outs stand apart in the source and are kept apart here.
# Columns and labels:
# [1] = test system: mouse allogenic MLR (BALB/c mouse spleen cells stimulated with C57BL/6 mouse spleen cells); assay: mouse allogenic mixed lymphocyte reaction (MLR), 3H-thymidine uptake; assay type: cell-based
# Outline: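 BALB/c responder spleen cells were mixed in equal amounts with mitomycin C-treated (40 μg/ml, 60 min, 37 °C) C57BL/6 stimulator spleen cells, each at 10^7 cells/ml in RPMI1640 with 20% FCS and 10^-4 M 2-mercaptoethanol. Blastogenesis was read as 3H-thymidine uptake (18.5 KBq/well, 4 h) after culture and expressed as % suppression. Compounds were dissolved in methanol, then diluted in medium.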
# CTLL-2 cells = assay: suppression of proliferation of IL-2-dependent mouse cell line CTLL-2 induced by IL-2; assay type: cell-based; settings: IL-2 50 U/ml, Table 6B
# Experimental: IL-2-dependent mouse cell line CTLL-2 cells were suspended in the RPMI1640 culture medium supplemented with 30% FCS to the concentration of 4×10^5 cells/ml. Fifty μl of the cell suspension, 50 μl of 200 U/ml recombinant human IL-2 (rhIL-2) and 100 μl of the test substance were added to a 96-well flat-bottomed microtest plate. […] The percent suppression (%) was calculated by the following formula. [formula]
# [2] = test system: IL-3 production in mouse allogenic MLC; assay: suppression of IL-3 production in mouse allogenic MLC; assay type: cell-based
# Experimental: Mouse allogenic MLC was carried out as follows:
# After termination of culture, the supernatant was collected and used as the supernatant of mouse allogenic MLC.
# [3] = cytotoxicity to cultured tumor cell line HL60; settings: human, hl60 cells, Suppression
# Experimental: (§1) Cytotoxicity to various human tumor cell lines was examined as follows:
# (§2) Cells of human cell lines, K562, MOLT4, U937 and HL60 were respectively suspended to the concentration of 4×10^5 cells/ml in the RPMI1640 culture medium supplemented with 20% FCS. Fifty μl of each suspension was added to each well of a 96-well microtest plate to which 50 μl of the test solution had been added. After culturing the suspension at 37° C. in an atmosphere of 5% carbon dioxide for 72 hours, the absorbancy at 570 nm was measured in the same way as with the colorimetry using MTT in Experiment Example 1, and the percent suppression was calculated by the following formula, which was used as an index of cytotoxicity.
# HL60 = assay: cytotoxicity to cultured tumor cell line HL60
# [4] = test system: allo-specific cytotoxic antibody in serum of EL4-immunized BALB/c mice; assay: suppression of allo-specific cytotoxic antibody production induced by allogenic cell immunization of mouse; assay type: in vivo
# Experimental: Male 5- to 7-week-old BALB/c mice were immunized with leukemia cell EL4 derived from C57BL/6 mice (10^7 cells/mouse, intraperitoneal administration) in the same way as in Experiment Example 9, and the […] Nine to ten days after immunization, a serum was collected from the mice. Fifty μl of the two-fold serial dilution of the serum, 50 μl of a guinea pig complement and EL4 cell suspension labelled with ^51 Cr as the target cell (5×10^4 cells/ml, 100 μl) were together added to a 96-well microtest plate. After incubation at 37° C. for 1 hour, the amount of ^51 Cr released in the supernatant was measured, and the complement-dependent cytotoxicity was calculated by the following formula. [formula]
# The value of allo-specific cytotoxic antibody determined as above was expressed by the titer calculated on the basis of the concentration at which the releasing amount of ^51 Cr was 50% of that of ^51 Cr-labelled target cells treated with 0.1 N HCl.
# [5] = cytotoxicity to cultured tumor cell line K562; settings: human, k562 cells, Suppression
# Experimental: as §1, §2
# K562 = assay: cytotoxicity to cultured tumor cell line K562
# Experimental: as §1, §2
# [6] = 0.003 mg/kg/day po × 10, Table 10D
# [7] = 0.01 mg/kg/day po × 5, Table 10C
# [8] = 0.01 mg/kg/day po × 10, Table 10D
# [9] = 0.03 mg/kg/day po × 5, Table 10C
# [10] = 0.03 mg/kg/day po × 10, Table 10D
# [11] = 0.1 mg/kg/day po × 5, Table 10C
# [12] = 0.1 mg/kg/day po × 10, Table 10D
# [13] = 0.3 mg/kg/day po × 5, Table 10C
# [14] = 0.3 mg/kg/day po × 10, Table 10D
smiles,measurement,setting,value
CCCCCCCCCCCCC/C=C/C[C@@H](O)[C@H](O)[C@@](N)(CO)C(=O)O [Example 5],3H-thymidine uptake,"[1]; 0.0001 μg/ml, Table 1A",15747 cpm
same,3H-thymidine uptake,"[1]; 0.0001 μg/ml, Table 1B",4485 ± 812 cpm
same,Suppression,"[1]; 0.0001 μg/ml, Table 1B",18.1%
same,3H-thymidine uptake,"[1]; 0.001 μg/ml, Table 1A",2384 cpm
same,3H-thymidine uptake,"[1]; 0.001 μg/ml, Table 1B",6101 ± 356 cpm
same,Suppression,"[1]; 0.001 μg/ml, Table 1B",0%
same,3H-thymidine uptake,"[1]; 0.01 μg/ml, Table 1A",1421 cpm
same,3H-thymidine uptake,"[1]; 0.01 μg/ml, Table 1B",1013 ± 314 cpm
same,3H-thymidine uptake,"[1]; 0.1 μg/ml, Table 1A",1091 cpm
same,3H-thymidine uptake,"[1]; 0.1 μg/ml, Table 1B",359 ± 54 cpm
same,3H-thymidine uptake,"[1]; 1 μg/ml, Table 1A",1163 cpm
same,3H-thymidine uptake,"[1]; 1 μg/ml, Table 1B",52 ± 24 cpm
same,inhibition at 0.0001 µg/mL,"[1]; Mus musculus, Lymphocyte, 0.0001 μg/ml, Table 1A, read-out: Suppression",16%
same,inhibition at 0.001 µg/mL,"[1]; Mus musculus, Lymphocyte, 0.001 μg/ml, Table 1A, read-out: Suppression",95.5%
same,inhibition at 0.01 µg/mL,"[1]; Mus musculus, Lymphocyte, 0.01 μg/ml, Table 1A, read-out: Suppression",100%
same,inhibition at 0.01 µg/mL,"[1]; Mus musculus, Lymphocyte, 0.01 μg/ml, Table 1B, read-out: Suppression",92.2%
same,inhibition at 0.1 µg/mL,"[1]; Mus musculus, Lymphocyte, 0.1 μg/ml, Table 1A, read-out: Suppression",100%
same,inhibition at 0.1 µg/mL,"[1]; Mus musculus, Lymphocyte, 0.1 μg/ml, Table 1B, read-out: Suppression",100%
same,inhibition at 1 µg/mL,"[1]; Mus musculus, Lymphocyte, 1 μg/ml, Table 1A, read-out: Suppression",100%
same,inhibition at 1 µg/mL,"[1]; Mus musculus, Lymphocyte, 1 μg/ml, Table 1B, read-out: Suppression",100%
same,IC50,"[1]; Mus musculus, Lymphocyte, read-out: 50%-inhibition concentration (IC50) in mouse allogenic MLR",0.25 ng/mL
same,optical density (OD570),CTLL-2 cells; 0.01 μg/ml,0.915
same,optical density (OD570),CTLL-2 cells; 0.1 μg/ml,0.322
same,optical density (OD570),CTLL-2 cells; 1 μg/ml,0.239
same,inhibition at 0.01 µg/mL,"CTLL-2 cells; Mus musculus, CTLL-2, 68 h, 0.01 μg/ml, read-out: Suppression",4.9%
same,inhibition at 0.1 µg/mL,"CTLL-2 cells; Mus musculus, CTLL-2, 68 h, 0.1 μg/ml, read-out: Suppression",68.3%
same,inhibition at 1 µg/mL,"CTLL-2 cells; Mus musculus, CTLL-2, 68 h, 1 μg/ml, read-out: Suppression",77.2%
same,IL-3 activity,[2]; 0.0001 μg/ml,32.7 U/ml
same,IL-3 activity,[2]; 0.001 μg/ml,19.2 U/ml
same,IL-3 activity,[2]; 0.01 μg/ml,11.5 U/ml
same,IL-3 activity,[2]; 0.1 μg/ml,7.9 U/ml
same,IL-3 activity,[2]; 1 μg/ml,7.9 U/ml
same,inhibition at 0.0001 µg/mL,"[2]; Mus musculus, 48 h, 0.0001 μg/ml",42.1%
same,inhibition at 0.001 µg/mL,"[2]; Mus musculus, 48 h, 0.001 μg/ml",76.5%
same,inhibition at 0.01 µg/mL,"[2]; Mus musculus, 48 h, 0.01 μg/ml",96.2%
same,inhibition at 0.1 µg/mL,"[2]; Mus musculus, 48 h, 0.1 μg/ml",100%
same,inhibition at 1 µg/mL,"[2]; Mus musculus, 48 h, 1 μg/ml",100%
same,cytotoxicity at 72 h,[3]; 0.1 μg/ml,0%
same,cytotoxicity at 72 h,[3]; 1 μg/ml,5%
same,cytotoxicity at 72 h,[3]; 10 μg/ml,19.4%
same,Absorbancy,HL60; 0.1 μg/ml,1.505 ± 0.035
same,Absorbancy,HL60; 1 μg/ml,1.415 ± 0.010
same,Absorbancy,HL60; 10 μg/ml,1.201 ± 0.061
same,"Allogenic cell-specific antibody in serum, suppression",[4]; [6],28.3%
same,"Allogenic cell-specific antibody in serum, titer",[4]; [6],147 ± 43
same,"Allogenic cell-specific antibody in serum, suppression",[4]; [7],0%
same,"Allogenic cell-specific antibody in serum, titer",[4]; [7],318 ± 75
same,"Allogenic cell-specific antibody in serum, suppression",[4]; [8],45.4%
same,"Allogenic cell-specific antibody in serum, titer",[4]; [8],112 ± 66
same,"Allogenic cell-specific antibody in serum, suppression",[4]; [9],37.8%
same,"Allogenic cell-specific antibody in serum, titer",[4]; [9],186 ± 100
same,"Allogenic cell-specific antibody in serum, suppression",[4]; [10],40.0%
same,"Allogenic cell-specific antibody in serum, titer",[4]; [10],123 ± 43
same,"Allogenic cell-specific antibody in serum, suppression",[4]; [11],61.5%
same,"Allogenic cell-specific antibody in serum, titer",[4]; [11],115 ± 19
same,"Allogenic cell-specific antibody in serum, suppression",[4]; [12],71.2%
same,"Allogenic cell-specific antibody in serum, titer",[4]; [12],59 ± 38
same,"Allogenic cell-specific antibody in serum, suppression",[4]; [13],69.6%
same,"Allogenic cell-specific antibody in serum, titer",[4]; [13],91 ± 67
same,"Allogenic cell-specific antibody in serum, suppression",[4]; [14],76.1%
same,"Allogenic cell-specific antibody in serum, titer",[4]; [14],49 ± 26
same,"Allogenic cell-specific antibody in serum, suppression","[4]; 1 mg/kg/day po × 5, Table 10C",82.5%
same,"Allogenic cell-specific antibody in serum, titer","[4]; 1 mg/kg/day po × 5, Table 10C",52 ± 27
same,"Allogenic cell-specific antibody in serum, suppression","[4]; 1 mg/kg/day po × 10, Table 10D",76.6%
same,"Allogenic cell-specific antibody in serum, titer","[4]; 1 mg/kg/day po × 10, Table 10D",48 ± 37
same,allo-specific cytotoxic antibody production in serum (in words),"[4]; intraperitoneal or oral, Tables 10A to 10D",strongly suppresses allo-specific cytotoxic antibody production in serum
same,cytotoxicity at 72 h,[5]; 0.1 μg/ml,2.2%
same,cytotoxicity at 72 h,[5]; 1 μg/ml,4%
same,cytotoxicity at 72 h,[5]; 10 μg/ml,4.7%
same,Absorbancy,K562; 0.1 μg/ml,1.111 ± 0.037
same,Absorbancy,K562; 1 μg/ml,1.090 ± 0.044
same,Absorbancy,K562; 10 μg/ml,1.083 ± 0.033
